How the values were obtained:
[1] = target: human 20S proteasome (hs20S), trypsin-like activity mediated by the β2 subunit (Homo sapiens, UniProt P49720+Q99436); format: biochemical; conditions: Boc-LRR-AMC, Table 2
HL-60 leukemia cell line = assay: NCI dose-dependent growth inhibition, HL-60; format: cell-based; conditions: 48-h exposure, optical density, data provided by NCI
K-562 leukemia cell line = assay: NCI dose-dependent growth inhibition, K-562; format: cell-based; conditions: 48-h exposure, optical density, data provided by NCI
[2] = tested on: MOLT-4 leukemia cell line; assay: NCI dose-dependent growth inhibition, MOLT-4; format: cell-based; conditions: 48-h exposure, optical density, data provided by NCI
[3] = tested on: RPMI-8226 leukemia cell line; assay: NCI dose-dependent growth inhibition, RPMI-8226; format: cell-based; conditions: 48-h exposure, optical density, data provided by NCI
SR leukemia cell line = assay: NCI dose-dependent growth inhibition, SR; format: cell-based; conditions: 48-h exposure, optical density, data provided by NCI

Which results are given for syringolin B methyl ester [Compound 1]?
Trypsin-Like Activity kin/Ki [1]: 326 M⁻¹ s⁻¹; GI50 (HL-60 leukemia cell line): 5.41 µM; GI50 (K-562 leukemia cell line): 6.12 µM; GI50 [2]: 4.73 µM; GI50 [3]: 3.97 µM; GI50 (SR leukemia cell line): 5.13 µM

Reference: paper PMC4562813 (Bioorganic & medicinal chemistry, 2015)
